# Active and inactive are the calls of the source. The calls are words filed in the database; no cut-off is given here.
# Legend:
# [1] = Binding affinity to 5'-ATCGAT-3' DNA (unknown origin) at 80 uM at 25 degC by ITC method
# [2] = Binding affinity to 5'-CTGCTTC-3' of topoisomerase 2alpha promoter (unknown origin) in Tris buffer at pH 7 at 30 uM by DNA footprinting
# [3] = Binding affinity to 5'-ATCGAT-3' of hairpin DNA (unknown origin) in 10 mM phosphate buffer at pH 6.2 at 1 mol equivalent of compound by CD titration method
# [4] = Selectivity for 5'-TACGAT-3' of topoisomerase 2alpha promoter (unknown origin) over 5'-CTGCTTC-3' of topoisomerase 2alpha promoter (unknown origin)
# Nucleic Acid [5] = experiment: Binding affinity to 5'-ACGCGT-3' of hairpin DNA (unknown origin) in cacodylic acid buffer at pH 6.5 assessed as change in melting temperature at 3 uM by thermal denaturation assay; type: nucleic-acid assay
# [6] = Binding affinity to 5'-ATCGAT-3' of hairpin DNA (unknown origin) in cacodylic acid buffer at pH 6.5 at 25 degC by SPR analysis
# Nucleic Acid [7] = experiment: Binding affinity to 5'-ATCGAT-3' of hairpin DNA (unknown origin) in cacodylic acid buffer at pH 6.5 assessed as change in melting temperature at 3 uM by thermal denaturation assay; type: nucleic-acid assay
# Nucleic Acid [8] = experiment: Binding affinity to 5'-AAATTT-3' of hairpin DNA (unknown origin) in cacodylic acid buffer at pH 6.5 assessed as change in melting temperature at 3 uM by thermal denaturation assay; type: nucleic-acid assay
# [9] = Binding affinity to 5'-TACGAT-3' of topoisomerase 2alpha promoter (unknown origin) in Tris buffer at pH 7 at 10 uM by DNA footprinting
# [10] = Binding affinity to 5'-ATGCAT-3' of hairpin DNA (unknown origin) in cacodylic acid buffer at pH 6.5 at 25 degC by SPR analysis
# [11] = Binding affinity to 5'-ACGCGT-3' of hairpin DNA (unknown origin) in cacodylic acid buffer at pH 6.5 at 25 degC by SPR analysis
# [12] = Binding affinity to 5'-ACGCGT-3' DNA (unknown origin) at 80 uM at 25 degC by ITC method
# [13] = Binding affinity to 5'-ACGCGT-3' of hairpin DNA (unknown origin) in 10 mM phosphate buffer at pH 6.2 at 1 mol equivalent of compound by CD titration method
# Nucleic Acid [14] = experiment: Binding affinity to 5'-ATGCAT-3' of hairpin DNA (unknown origin) in cacodylic acid buffer at pH 6.5 assessed as change in melting temperature at 3 uM by thermal denaturation assay; type: nucleic-acid assay
# [15] = Binding affinity to 5'-ACGCGT-3' of DNA fragment (unknown origin) in Tris buffer at pH 7 at 0.05 uM by DNA footprinting
# [16] = Binding affinity to 5'-AAATTT-3' of DNA fragment (unknown origin) in Tris buffer at pH 7 at 30 uM by DNA footprinting
# [17] = Binding affinity to 5'-AAATTT-3' of hairpin DNA (unknown origin) in 10 mM phosphate buffer at pH 6.2 at 1 mol equivalent of compound by CD titration method
# [18] = Binding affinity to 5'-AAATTT-3' DNA (unknown origin) at 80 uM at 25 degC by ITC method
# [19] = Binding affinity to 5'-AAATTT-3' of DNA fragment (unknown origin) in Tris buffer at pH 7 at 20 uM by DNA footprinting
# [20] = Binding affinity to 5'-AAATTT-3' of hairpin DNA (unknown origin) in cacodylic acid buffer at pH 6.5 at 25 degC by SPR analysis
# [21] = Binding affinity to 5'-ATGCAT-3' of 11 bp hairpin DNA oligonucleotide (unknown origin) in cacodylic acid buffer at pH 6.5 at 25 degC by SPR analysis
# [22] = Binding affinity to 5'-ATCGAT-3' of 11 bp hairpin DNA oligonucleotide (unknown origin) in cacodylic acid buffer at pH 6.5 at 25 degC by SPR analysis
# [23] = Binding affinity to 5'-AAATTT-3' of 11 bp hairpin DNA oligonucleotide (unknown origin) in cacodylic acid buffer at pH 6.5 at 25 degC by SPR analysis
# [24] = Binding affinity to 5'-ACTAGT-3' of DNA fragment (unknown origin) in Tris buffer at pH 7 at 1 uM by DNA footprinting
# [25] = Binding affinity to 5'-ATGCAT-3' DNA (unknown origin) at 80 uM at 25 degC by ITC method
# [26] = Binding affinity to 5'-ATGCAT-3' of DNA fragment (unknown origin) in Tris buffer at pH 7 at 1 uM by DNA footprinting
# [27] = Binding affinity to 5'-ACGCGT-3' of DNA fragment (unknown origin) in Tris buffer at pH 7 at 1 uM by DNA footprinting
# [28] = Binding affinity to 5'-ATGCAT-3' of hairpin DNA (unknown origin) in 10 mM phosphate buffer at pH 6.2 at 1 mol equivalent of compound by CD titration method
# [29] = Binding affinity to 5'-ACGCGT-3' of 11 bp hairpin DNA oligonucleotide (unknown origin) in cacodylic acid buffer at pH 6.5 at 25 degC by SPR analysis
structure (smiles),measurement,setting,value
CN(C)CCCNC(=O)c1cc(NC(=O)c2nc(NC(=O)c3cc(NC=O)cn3CCCN)cn2C)cn1C,Activity,[1],Active
same,Activity,[2],Active
same,Activity,[3],Active
same,Selectivity ratio,[4],3
same,ΔTm,Nucleic Acid [5],0 °C
same,Ke,[6],< 1 ×10⁵ /M
same,ΔTm,Nucleic Acid [7],0 °C
same,ΔTm,Nucleic Acid [8],10 °C
same,Activity,[9],Active
CN(C)CCCNC(=O)c1cc(NC(=O)c2nc(NC(=O)c3cc(NC=O)cn3C)cn2C)cn1C,Activity,[1],Active
same,Activity,[2],Active
same,Selectivity ratio,[4],3
same,ΔTm,Nucleic Acid [5],3 °C
same,Ke,[6],2 ×10⁵ /M
same,ΔTm,Nucleic Acid [7],0 °C
same,Activity,[9],Active
CN(C)CCNC(=O)c1nc(NC(=O)c2cc(NC(=O)c3nc(NC=O)cn3C)cn2CCCN)cn1C,Ke,[10],3.5 ×10⁷ /M
same,ΔTm,Nucleic Acid [5],> 24 °C
same,Ke,[6],1.7 ×10⁶ /M
same,Ke,[11],2.4 ×10⁸ /M
same,ΔTm,Nucleic Acid [7],11 °C
same,Activity,[12],Active
same,ΔTm,Nucleic Acid [8],10 °C
same,Activity,[13],Active
same,ΔTm,Nucleic Acid [14],24 °C
same,Activity,[15],Active
CN(C)CCCNC(=O)c1cc(NC(=O)c2cc(NC(=O)c3cc(NC=O)cn3C)cn2CCCN)cn1C,Activity,[16],Active
same,ΔTm,Nucleic Acid [5],0 °C
same,Activity,[17],Active
same,ΔTm,Nucleic Acid [7],10 °C
same,Activity,[18],Active
same,Activity,[19],Active
same,Ke,[20],4.8 ×10⁷ /M
same,ΔTm,Nucleic Acid [8],25 °C
CN(C)CCNC(=O)c1nc(NC(=O)c2cc(NC(=O)c3nc(NC=O)cn3C)cn2C)cn1C,Ke,[21],1.2 ×10⁷ /M
same,Ke,[22],1 ×10⁵ /M
same,ΔTm,Nucleic Acid [5],9 °C
same,Ke,[11],5.4 ×10⁷ /M
same,ΔTm,Nucleic Acid [7],1 °C
same,Activity,[12],Active
same,Ke,[20],5.3 ×10⁴ /M
same,ΔTm,Nucleic Acid [8],1 °C
same,ΔTm,Nucleic Acid [14],9 °C
CN(C)CCCNC(=O)c1cc(NC(=O)c2cc(NC(=O)c3cc(NC=O)cn3C)cn2C)cn1C,Ke,[23],3.2 ×10⁶ /M
same,ΔTm,Nucleic Acid [7],1 °C
same,Activity,[18],Active
same,Activity,[19],Active
same,ΔTm,Nucleic Acid [8],9 °C
CN(C)CCCNC(=O)c1cc(NC(=O)c2cc(NC(=O)c3nc(NC=O)cn3C)cn2CCCN)cn1C,Activity,[24],Active
same,Activity,[25],Active
same,Ke,[10],1.3 ×10⁸ /M
same,Activity,[26],Active
same,ΔTm,Nucleic Acid [5],0 °C
same,Ke,[6],2.7 ×10⁶ /M
same,Ke,[11],2.3 ×10⁶ /M
same,ΔTm,Nucleic Acid [7],7 °C
same,Activity,[27],Active
same,Activity,[28],Active
same,ΔTm,Nucleic Acid [8],0 °C
same,ΔTm,Nucleic Acid [14],26 °C
CN(C)CCCNC(=O)c1cc(NC(=O)c2cc(NC(=O)c3nc(NC=O)cn3C)cn2C)cn1C,Ke,[29],8.8 ×10⁴ /M
same,Activity,[25],Active
same,Ke,[21],1.2 ×10⁷ /M
same,Ke,[22],9.4 ×10⁴ /M
same,ΔTm,Nucleic Acid [5],2 °C
same,ΔTm,Nucleic Acid [7],3 °C
same,ΔTm,Nucleic Acid [14],11 °C

# Source: ChEMBL document CHEMBL2396635, “Design, synthesis, and DNA binding characteristics of a group of orthogonally positioned diamino, N-formamido, pyrrole- and imidazole-containing polyamides” (Bioorg Med Chem, 2013)
